Measured values from BindingDB's records for doi:10.7270/Q21V5H4F (n/a, 1992).

Target: HIV-1 RT (reverse transcriptase)
Test: Inhibitory concentration against HIV-1 RT was determined

O=C(C[C@H]1C(=O)Nc2ccccc2-c2cccn21)OCc1ccccc1
IC50: 115 nM
